What was measured:
[1] = target: T1, ceruloplasmin (Homo sapiens, UniProt P00450); details: order of magnitude; read-out: Kd for copper bound to ceruloplasmin; cited from earlier work
T1 sequence (P00450 20-1065): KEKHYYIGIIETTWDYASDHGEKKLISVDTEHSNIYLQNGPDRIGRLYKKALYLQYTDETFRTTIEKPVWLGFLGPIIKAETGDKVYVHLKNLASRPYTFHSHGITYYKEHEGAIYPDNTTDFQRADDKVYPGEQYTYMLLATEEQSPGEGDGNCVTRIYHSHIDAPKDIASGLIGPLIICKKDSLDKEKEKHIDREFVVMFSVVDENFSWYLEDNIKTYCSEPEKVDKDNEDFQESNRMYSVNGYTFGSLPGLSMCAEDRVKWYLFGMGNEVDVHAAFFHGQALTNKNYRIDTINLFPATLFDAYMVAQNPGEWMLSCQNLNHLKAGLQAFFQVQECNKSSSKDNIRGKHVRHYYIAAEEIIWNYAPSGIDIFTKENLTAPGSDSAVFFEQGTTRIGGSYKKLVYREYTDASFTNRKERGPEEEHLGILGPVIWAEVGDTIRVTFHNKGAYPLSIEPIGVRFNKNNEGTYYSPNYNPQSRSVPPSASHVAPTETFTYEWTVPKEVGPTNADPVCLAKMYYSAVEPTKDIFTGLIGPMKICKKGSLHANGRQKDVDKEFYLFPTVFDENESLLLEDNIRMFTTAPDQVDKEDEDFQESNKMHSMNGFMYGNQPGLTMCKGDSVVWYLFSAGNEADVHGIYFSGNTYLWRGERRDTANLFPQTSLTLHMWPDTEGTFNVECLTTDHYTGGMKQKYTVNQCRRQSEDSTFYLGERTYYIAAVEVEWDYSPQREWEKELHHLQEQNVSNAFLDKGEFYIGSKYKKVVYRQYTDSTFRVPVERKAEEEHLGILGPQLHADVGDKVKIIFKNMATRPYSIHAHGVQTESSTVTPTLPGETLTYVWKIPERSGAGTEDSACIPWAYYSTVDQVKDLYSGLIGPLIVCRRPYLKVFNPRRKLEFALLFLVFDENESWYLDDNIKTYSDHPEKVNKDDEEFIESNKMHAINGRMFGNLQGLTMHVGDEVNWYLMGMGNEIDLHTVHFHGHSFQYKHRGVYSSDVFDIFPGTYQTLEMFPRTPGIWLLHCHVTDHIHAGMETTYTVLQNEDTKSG

[2] = target: apo-glucose dehydrogenase (Acinetobacter calcoaceticus, UniProt P13650); experiment: activation of apo-glucose dehydrogenase by co-factor PQQ, electrochemical current; type: biochemical
Chain of apo-glucose dehydrogenase (P13650 25-478): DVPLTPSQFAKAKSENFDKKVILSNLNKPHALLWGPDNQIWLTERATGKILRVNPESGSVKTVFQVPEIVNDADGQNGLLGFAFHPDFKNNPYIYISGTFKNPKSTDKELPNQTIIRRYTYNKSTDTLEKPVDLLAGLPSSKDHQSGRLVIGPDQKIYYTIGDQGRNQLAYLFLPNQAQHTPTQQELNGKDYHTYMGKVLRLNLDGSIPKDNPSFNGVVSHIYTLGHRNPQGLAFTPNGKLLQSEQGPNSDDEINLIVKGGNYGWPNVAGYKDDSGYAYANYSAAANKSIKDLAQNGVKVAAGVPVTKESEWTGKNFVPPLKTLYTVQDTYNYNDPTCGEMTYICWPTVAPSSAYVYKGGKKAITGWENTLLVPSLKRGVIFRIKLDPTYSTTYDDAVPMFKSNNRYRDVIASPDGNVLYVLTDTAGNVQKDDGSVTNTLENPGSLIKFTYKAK
Description: FIG. 8 is a schematic showing a specific example of glucose being oxidized to gluconone by the holo-enzyme glucose dehydrogenase. In this case the co-enzyme is PQQ and a common mediator used to transducer electrical current through a working electrode is ferrocene. This is another type of configuration in glucometers today.
FIG. 9 is a schematic showing the loss of glucose dehydrogenase activity when the specific co-factor PQQ is removed. As an apo-enzyme, […] is not capable of oxidizing glucose. As a result, transduction of current is blocked.
PQQ was added to apo-enzyme in doses ranging from 100 pM to 100 nM. […] In this case, distinctions were observed by 60 sec.

Structure (SMILES) | Kd [1] [nM] | outward current on addition of co-factor ([2]; FIG. 10, with PQQ) | outward current on addition of co-factor ([2]; FIG. 17, PQQ added to apo-enzyme in doses from 100 pM to 100 nM)
[Cu] [copper] | ~0.01 | – | –
O=C(O)c1cc(C(=O)O)c2c(n1)C(=O)C(=O)c1cc(C(=O)O)[nH]c1-2 [PQQ] | – | outward current (more negative) results | increase in the measurement of outward current

Source: patent publication US20070209950A1, “METHODS AND DEVICES FOR THE DETECTION AND MEASUREMENT OF FREE METALS IN FLUIDS AND METHODS FOR DIAGNOSING METAL-RELATED DISEASES AND FOR DETERMINING PHARMACOLOGIC DOSING REGIMENS” (priority 2006, published 2007)
